Read-outs that look alike come from different tables or passages of the source.
Legend:
[1] = ABTS•+ decolorization assay
Method in brief: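 Compounds (10 mM DMSO stocks, diluted) added to ABTS•+ radical generated by potassium persulfate oxidation of ABTS. Decolorization followed as absorbance at room temperature, with Trolox as standard.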

[2] = Lipophilicity as RM values by RP-TLC; type: physicochemical; design: key: RM = log[(1/Rf) − 1]; conditions: methanol/water 70/30, SD < 10%
Method in brief: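 Reversed-phase TLC on silica gel plates impregnated with 5% (v/v) liquid paraffin, methanol/water 70/30 (v/v) mobile phase, saturated tanks at 24 °C, UV detection. RM = log[(1/Rf) − 1] from five Rf measurements.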

[3] = Reducing activity with the stable radical DPPH
Method in brief: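 DPPH (final 0.05 mM) in absolute ethanol mixed with an equal volume of compound at 0.05 or 0.1 mM, ethanol as control. Absorbance at 517 nm read at room temperature after 20 and 60 min, expressed as reducing activity RA%.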

[4] = target: T1, soybean lipoxygenase (Glycine max, UniProt P08170); experiment: biochemical; type: biochemical; conditions: soybean LOX; for IC50: read-out: LOX IC50
T1 sequence (P08170 1-839): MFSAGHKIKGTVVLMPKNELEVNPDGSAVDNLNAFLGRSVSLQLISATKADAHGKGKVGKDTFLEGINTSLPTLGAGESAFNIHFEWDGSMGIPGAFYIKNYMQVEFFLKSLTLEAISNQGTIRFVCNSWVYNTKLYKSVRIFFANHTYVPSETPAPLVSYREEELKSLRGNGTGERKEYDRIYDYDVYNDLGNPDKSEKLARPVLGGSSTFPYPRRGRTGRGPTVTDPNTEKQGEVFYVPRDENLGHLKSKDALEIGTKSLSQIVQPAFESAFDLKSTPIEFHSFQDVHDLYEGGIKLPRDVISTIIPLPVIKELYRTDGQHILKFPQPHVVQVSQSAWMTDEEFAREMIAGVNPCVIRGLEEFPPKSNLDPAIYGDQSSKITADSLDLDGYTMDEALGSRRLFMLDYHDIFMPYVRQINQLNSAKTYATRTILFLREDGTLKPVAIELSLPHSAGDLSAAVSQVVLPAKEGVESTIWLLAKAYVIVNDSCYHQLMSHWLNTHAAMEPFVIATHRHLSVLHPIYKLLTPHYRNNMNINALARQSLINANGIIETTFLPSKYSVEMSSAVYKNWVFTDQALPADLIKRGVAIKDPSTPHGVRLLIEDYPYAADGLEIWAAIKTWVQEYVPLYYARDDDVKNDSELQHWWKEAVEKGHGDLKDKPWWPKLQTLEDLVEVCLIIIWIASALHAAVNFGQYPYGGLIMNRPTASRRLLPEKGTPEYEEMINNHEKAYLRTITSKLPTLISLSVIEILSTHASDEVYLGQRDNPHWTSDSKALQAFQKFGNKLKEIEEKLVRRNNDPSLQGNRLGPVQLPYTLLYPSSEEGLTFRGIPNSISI
Method in brief: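 Soybean LOX (enzyme solution 1/9 × 10^−4 w/v in saline) incubated at room temperature with sodium linoleate ([…]) in tris buffer pH 9. Compounds added from DMSO stocks. IC50 derived from several concentrations.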

[5] = Inhibition of linoleic acid lipid peroxidation (AAPH)
Method in brief: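 Sodium linoleate oxidation was initiated by AAPH in 0.05 M phosphate buffer, pH 7.4, at 37 °C, with test compound present and DMSO as blank. Conjugated diene hydroperoxide formation was followed as the absorbance increase at 234 nm.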

[6] = In vitro lipid peroxidation of liposomes
[7] = design: method as in PMID 25798685; conditions: RP-TLC, methanol/water 70/30, SD < 10%; cited from earlier work
[8] = tested on: L929 mouse fibroblasts cells; design: method as in PMID 25798685; conditions: 24-h incubation, cited from earlier work
[9] = design: method as in PMID 25798685; conditions: cited from earlier work
[10] = target: T1, soybean lipoxygenase; design: method as in PMID 25798685; conditions: 100 μM; cited from earlier work
[11] = design: method as in PMID 25798685; conditions: cited from earlier work; remark: listed apart in the source
[12] = design: method as in PMID 25798685; conditions: DPPH, cited from earlier work
[13] = target: acetyl-cholinesterase (AChE) (Electrophorus electricus, UniProt O42275); conditions: cited from earlier work
[14] = tested on: L929 mouse fibroblasts cells; experiment: Cytotoxicity, propidium iodide fluorescence method; type: cell-based; conditions: 24-h incubation
Method in brief: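 L929 cells in EMEM with 10% horse serum were allowed to attach for 24 h, then exposed to 1, 10, 20, 50 and 100 μM compound for 24 h at 37 °C. Cells were detached, stained with propidium iodide, and cell death was measured by flow cytometry.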

Chain of acetyl-cholinesterase (AChE) (O42275 24-633): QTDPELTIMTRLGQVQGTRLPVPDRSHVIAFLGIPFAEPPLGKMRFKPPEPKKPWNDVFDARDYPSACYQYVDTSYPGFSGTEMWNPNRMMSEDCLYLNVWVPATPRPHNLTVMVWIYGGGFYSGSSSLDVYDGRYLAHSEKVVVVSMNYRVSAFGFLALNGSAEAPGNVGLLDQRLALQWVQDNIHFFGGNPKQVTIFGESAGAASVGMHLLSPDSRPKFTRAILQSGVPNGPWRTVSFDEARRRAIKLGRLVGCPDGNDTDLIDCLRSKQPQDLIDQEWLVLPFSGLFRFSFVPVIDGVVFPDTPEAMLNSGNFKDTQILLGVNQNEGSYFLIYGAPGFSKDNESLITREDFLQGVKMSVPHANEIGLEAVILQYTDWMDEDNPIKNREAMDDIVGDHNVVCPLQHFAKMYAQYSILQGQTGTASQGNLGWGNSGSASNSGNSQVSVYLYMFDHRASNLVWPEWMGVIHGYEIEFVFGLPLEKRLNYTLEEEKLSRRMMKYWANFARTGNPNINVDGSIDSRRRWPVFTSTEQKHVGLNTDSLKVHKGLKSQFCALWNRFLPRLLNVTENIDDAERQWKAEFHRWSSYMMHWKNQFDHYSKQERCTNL

SMILES	ABTS•+ Inhb. % @ 100 μM [1]	RM [2]	RA% 100 μM 20 min [3]	RA% 100 μM 60 min [3]	% LOX Inhb. @ 100 μM [4]	IC50 [4]	AAPH% @ 100 μM (anti-lipid peroxidation) [5]	% Inhb. of Liposomes LP @ 100 μM [6]	also measured
CN(C)c1ccc(/C=C/C=C/C(=O)c2ccc(OCCOc3ccc(C(=O)/C=C/C=C/c4ccc(N(C)C)cc4)cc3)cc2)cc1 [ei]	98%	0.56	No	no	77%	62.5 µM	71%	4%	–
O=C(/C=C/c1ccc(OCc2ccc(Br)cc2)cc1)c1ccc(OCCCOc2ccc(C(=O)/C=C/c3ccc(OCc4ccc(Br)cc4)cc3)cc2)cc1 [c1, (2E,2′E)-1,1′-((propane-1,3-diylbis(oxy))bis(4,1-phenylene))bis(3-(4-((4-bromobenzyl)oxy)phenyl)prop-2-en-1-one)]	–	–	–	–	–	–	–	–	RM [7]: −0.68; 1 μM Average (% pi) ± σ [8]: 38.5 ± 6.9%; 10 μM Average (% pi) ± σ [8]: 49.5 ± 7.8%; 20 μM Average (% pi) ± σ [8]: 53.5 ± 0.71%; 50 μM Average (% pi) ± σ [8]: 74 ± 5.6%; 100 μM Average (% pi) ± σ [8]: 74 ± 5.6%; ABTS•+ Inhb. % @ 100 μM [9]: no; % LOX Inhb. @ 100 μM [10]: 41%; AAPH% @ 100 μM (anti-lipid peroxidation) [11]: 42%; RA% 100 μM 20 min [12]: 36%; RA% 100 μM 60 min [12]: 55%; % AChE Inhb. @ 100 μM [13]: 23%
O=C(/C=C/c1cccc(Oc2ccccc2)c1)c1ccc(O)cc1 [a2, (E)-1-(4-hydroxyphenyl)-3-(3-phenoxyphenyl) prop-2-en-1-one]	–	–	–	–	–	–	–	–	RM [7]: 0.36; 1 μM Average (% pi) ± σ [8]: 1 ± 0.5%; 10 μM Average (% pi) ± σ [8]: 3.5 ± 0.7%; 20 μM Average (% pi) ± σ [8]: 27.5 ± 8.9%; 50 μM Average (% pi) ± σ [8]: 63 ± 11.2%; 100 μM Average (% pi) ± σ [8]: 63 ± 11.2%; ABTS•+ Inhb. % @ 100 μM [9]: No; % LOX Inhb. @ 100 μM [10]: 10%; RA% 100 μM 20 min [12]: 3%; RA% 100 μM 60 min [12]: 4%; % AChE Inhb. @ 100 μM [13]: 26%
Cc1c(C)c2c(c(C)c1O)CCC(C)(C(=O)O)O2 (stereo not shown) [Trolox, reference compound]	96%	–	–	–	–	–	93%	69%	–
Cc1ccc(/C=C/C(=O)c2ccc(OCCCOc3ccc(C(=O)/C=C/c4ccc(C)o4)cc3)cc2)o1 [c12, (2E,2′E)-1,1′-((propane-1,3-diylbis(oxy))bis(4,1-phenylene))bis(3-(5-methylfuran-2-yl)prop-2-en-1-one)]	17%	−0.96	No	no	52%	96 µM	68%	74%	1 μM Average (% pi) ± σ ([14]; 1 μM): 13.22 ± 0.64%; 10 μM Average (% pi) ± σ ([14]; 10 μM): 31.31 ± 4.84%; 20 μM Average (% pi) ± σ ([14]; 20 μM): 53.79 ± 16.95%; 50 μM Average (% pi) ± σ ([14]; 50 μM): 84.03 ± 2.25%; 100 μM Average (% pi) ± σ ([14]; 100 μM): 84.03 ± 2.25%
CN(C)c1ccc(/C=C/C=C/C(=O)c2ccc(OCCCCCCCOc3ccc(C(=O)/C=C/C=C/c4ccc(N(C)C)cc4)cc3)cc2)cc1 [evi, (2E,2′E,4E,4′E)-1,1′-((heptane-1,7-diylbis(oxy))bis(4,1-phenylene))bis(5-(4-(dimethylamino)phenyl)penta-2,4-dien-1-one)]	79%	–	No	no	65%	76 µM	64%	64%	–
CN(C)c1ccc(/C=C/C=C/C(=O)c2ccc(OCCCCCOc3ccc(C(=O)/C=C/C=C/c4ccc(N(C)C)cc4)cc3)cc2)cc1 [eiv, (2E,2′E,4E,4′E)-1,1′-((pentane-1,5-diylbis(oxy))bis(4,1-phenylene))bis(5-(4-(dimethylamino)phenyl)penta-2,4-dien-1-one)]	73%	0.13	No	no	23%	–	72%	77%	–

Reference: PMC6337391 (Molecules, 2019)
